Tests used:
Assay in all cases: relative viability (nuclei count vs DMSO), 5 days (fraction); higher = more cells survive
A549 = system: A549
Method in brief: (§1)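 Relative viability was taken as the ratio of nuclei in treated wells to nuclei in vehicle wells. Lung cancer cell lines in 1536-well plates received compounds by pin tool one day after seeding, either one drug alone or a fixed anchor-drug dose plus five library-drug doses (not always all listed) in √10 steps. Nuclei were counted on 4× images after 5 days of treatment, and values are medians of duplicate plates.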

CAL-12T = system: CAL-12T
Method in brief: as §1

Calu-6 = system: Calu-6
Method in brief: as §1

EBC-1 = system: EBC-1
Method in brief: as §1

IA-LM = system: IA-LM
Method in brief: as §1

LK-2 = system: LK-2
Method in brief: as §1

NCI-H1299 = system: NCI-H1299
Method in brief: as §1

NCI-H1703 = system: NCI-H1703
Method in brief: as §1

NCI-H1650 = system: NCI-H1650
Method in brief: as §1

SMILES: O=C(O)c1ccc(-c2c[nH]c3ncc(-c4ccccc4)cc23)cc1C1CCCC1 + Cc1nc(NC(=O)N2CCC[C@H]2C(N)=O)sc1-c1ccnc(C(C)(C)C(F)(F)F)c1 [Alpelisib] (partner 2 µM)
- relative viability (A549; first compound 0.04 µM): 0.728
- relative viability (A549; first compound 0.1265 µM): 0.787
- relative viability (A549; first compound 0.4 µM): 0.869
- relative viability (A549; first compound 1.265 µM): 0.499
- relative viability (CAL-12T; first compound 0.04 µM): 1.17
- relative viability (CAL-12T; first compound 0.1265 µM): 1.45
- relative viability (CAL-12T; first compound 0.4 µM): 1.2
- relative viability (CAL-12T; first compound 1.265 µM): 1.11
- relative viability (Calu-6; first compound 0.04 µM): 1.04
- relative viability (Calu-6; first compound 0.1265 µM): 0.978
- relative viability (Calu-6; first compound 0.4 µM): 0.825
- relative viability (Calu-6; first compound 1.265 µM): 0.682
- relative viability (EBC-1; first compound 0.04 µM): 0.848
- relative viability (EBC-1; first compound 0.1265 µM): 0.719
- relative viability (EBC-1; first compound 0.4 µM): 0.939
- relative viability (EBC-1; first compound 1.265 µM): 0.48
- relative viability (IA-LM; first compound 0.04 µM): 0.77
- relative viability (IA-LM; first compound 0.1265 µM): 0.913
- relative viability (IA-LM; first compound 0.4 µM): 0.713
- relative viability (IA-LM; first compound 1.265 µM): 0.737
- relative viability (LK-2; first compound 0.04 µM): 1.23
- relative viability (LK-2; first compound 0.1265 µM): 0.612
- relative viability (LK-2; first compound 0.4 µM): 1.19
- relative viability (LK-2; first compound 1.265 µM): 1.08
- relative viability (NCI-H1299; first compound 0.04 µM): 1
- relative viability (NCI-H1299; first compound 0.1265 µM): 1.09
- relative viability (NCI-H1299; first compound 0.4 µM): 1.05
- relative viability (NCI-H1299; first compound 1.265 µM): 0.957
- relative viability (NCI-H1703; first compound 0.1265 µM): 0.405
- relative viability (NCI-H1703; first compound 0.4 µM): 0.395
- relative viability (NCI-H1703; first compound 1.265 µM): 0.332

SMILES: Oc1nc(-c2ccc(C(F)(F)F)cc2)nc2c1CSCC2 [XAV939] + CC(C)C[C@H](NC(=O)[C@H](Cc1ccccc1)NC(=O)c1cnccn1)B(O)O [Bortezomib] (partner 0.002 µM)
- relative viability (CAL-12T; first compound 0.08 µM): 0.981
- relative viability (CAL-12T; first compound 0.253 µM): 0.856
- relative viability (CAL-12T; first compound 0.8 µM): 0.89
- relative viability (CAL-12T; first compound 2.53 µM): 0.977
- relative viability (Calu-6; first compound 0.08 µM): 0.936
- relative viability (Calu-6; first compound 0.253 µM): 0.978
- relative viability (Calu-6; first compound 0.8 µM): 1.05
- relative viability (Calu-6; first compound 2.53 µM): 0.978
- relative viability (EBC-1; first compound 0.08 µM): 0.589
- relative viability (EBC-1; first compound 0.253 µM): 0.478
- relative viability (EBC-1; first compound 0.8 µM): 0.584
- relative viability (EBC-1; first compound 2.53 µM): 0.476
- relative viability (IA-LM; first compound 0.08 µM): 0.736
- relative viability (IA-LM; first compound 0.253 µM): 0.617
- relative viability (IA-LM; first compound 0.8 µM): 0.607
- relative viability (IA-LM; first compound 2.53 µM): 0.487
- relative viability (NCI-H1299; first compound 0.08 µM): 1.06
- relative viability (NCI-H1299; first compound 0.253 µM): 0.996
- relative viability (NCI-H1299; first compound 0.8 µM): 1.07
- relative viability (NCI-H1299; first compound 2.53 µM): 1.05
- relative viability (NCI-H1650; first compound 0.08 µM): 0.178
- relative viability (NCI-H1650; first compound 0.253 µM): 0.211
- relative viability (NCI-H1650; first compound 0.8 µM): 0.222
- relative viability (NCI-H1650; first compound 2.53 µM): 0.215
- relative viability (NCI-H1703; first compound 0.08 µM): 0.451
- relative viability (NCI-H1703; first compound 0.253 µM): 0.417
- relative viability (NCI-H1703; first compound 0.8 µM): 0.293
- relative viability (NCI-H1703; first compound 2.53 µM): 0.285

SMILES: CC1(C)CCC(c2ccc(Cl)cc2)=C(CN2CCN(c3ccc(C(=O)NS(=O)(=O)c4ccc(N[C@H](CCN5CCOCC5)CSc5ccccc5)c(S(=O)(=O)C(F)(F)F)c4)cc3)CC2)C1 [Navitoclax] + Cc1nc(NC(=O)N2CCC[C@H]2C(N)=O)sc1-c1ccnc(C(C)(C)C(F)(F)F)c1 [Alpelisib] (partner 2 µM)
- relative viability (A549; first compound 0.005 µM): 0.774
- relative viability (A549; first compound 0.01581 µM): 0.932
- relative viability (A549; first compound 0.05 µM): 0.922
- relative viability (A549; first compound 0.1581 µM): 0.803
- relative viability (A549; first compound 0.5 µM): 0.778
- relative viability (CAL-12T; first compound 0.005 µM): 1.08
- relative viability (CAL-12T; first compound 0.01581 µM): 1.28
- relative viability (CAL-12T; first compound 0.05 µM): 1.31
- relative viability (CAL-12T; first compound 0.1581 µM): 1.25
- relative viability (CAL-12T; first compound 0.5 µM): 1.11
- relative viability (Calu-6; first compound 0.005 µM): 0.973
- relative viability (Calu-6; first compound 0.01581 µM): 1.08
- relative viability (Calu-6; first compound 0.05 µM): 0.943
- relative viability (Calu-6; first compound 0.1581 µM): 0.875
- relative viability (Calu-6; first compound 0.5 µM): 0.938
- relative viability (EBC-1; first compound 0.005 µM): 0.781
- relative viability (EBC-1; first compound 0.01581 µM): 1.13
- relative viability (EBC-1; first compound 0.05 µM): 0.928
- relative viability (EBC-1; first compound 0.1581 µM): 0.829
- relative viability (EBC-1; first compound 0.5 µM): 0.592
- relative viability (IA-LM; first compound 0.005 µM): 0.69
- relative viability (IA-LM; first compound 0.01581 µM): 0.986
- relative viability (IA-LM; first compound 0.05 µM): 0.737
- relative viability (IA-LM; first compound 0.1581 µM): 0.792
- relative viability (IA-LM; first compound 0.5 µM): 0.833
- relative viability (LK-2; first compound 0.005 µM): 0.919
- relative viability (LK-2; first compound 0.01581 µM): 1.29
- relative viability (LK-2; first compound 0.05 µM): 1.12
- relative viability (LK-2; first compound 0.1581 µM): 0.997
- relative viability (LK-2; first compound 0.5 µM): 1.08
- relative viability (NCI-H1299; first compound 0.005 µM): 1.01
- relative viability (NCI-H1299; first compound 0.01581 µM): 1.09
- relative viability (NCI-H1299; first compound 0.05 µM): 1.11
- relative viability (NCI-H1299; first compound 0.1581 µM): 1.06
- relative viability (NCI-H1299; first compound 0.5 µM): 1.03
- relative viability (NCI-H1703; first compound 0.005 µM): 0.308
- relative viability (NCI-H1703; first compound 0.01581 µM): 0.406
- relative viability (NCI-H1703; first compound 0.05 µM): 0.425
- relative viability (NCI-H1703; first compound 0.1581 µM): 0.457
- relative viability (NCI-H1703; first compound 0.5 µM): 0.336

Source: the supplement of paper PMC10307832
